In patent US20070207154A1, “METHOD OF MODULATING VASCULARIZATION” (priority 2004, published 2007):

System: sprouting from wild-type, TFΔCT and PAR-2-deficient aortas
Assay: ex vivo angiogenesis assay (aortic ring sprouting in Matrigel)
Format: cell-based, mouse
Settings: for sprouting induced by single factor replacing serum: wild-type and TFΔCT aortas, EGM without serum, day 4, growth factors 20 ng/ml, VIIa 50 nM (FIG. 2c)
Protocol: Angiogenesis assays. The ex vivo angiogenesis assay was adopted from the rat aortic sprouting model described by Masson et al. Biol. Proced. […] Thoracic aortas from 8-11 week old wild-type, TFΔCT, PAR-2-deficient, and TFΔCT/PAR-2-deficient mice of either sex were embedded in Matrigel, and overlaid with EGM supplemented with 5% serum, growth factors, or inhibitors at the following concentrations: VEGF, bFGF, and PDGF: 20 ng/ml; hirudin: 500 nM, VIIai: […], NAPc2: […], NAP5: 1 μM, VIIa: 50 nM. In most cases, the number of aortic sprouts was determined at day 3 and 4 without knowledge of the genotype. Aortic ring RNA was isolated by Trizol (Invitrogen) extraction using standard procedures, digested with DNAaseI, followed by RT-PCR for β-actin and TF. […] Tests used 2 different virus doses, referred to as high (1.1×10^10 virus particles/ml) and low (5×10^9 particles/ml). For confocal fluorescence microscopy, aortic pieces with a minimum of surrounding Matrigel were fixed with 4% paraformaldehyde and methanol, incubated with primary and secondary antibodies (24 hours each), and mounted in anti-fade medium (Vector laboratories). Alternatively, cryosections of OCT-embedded aortas were fixed with acetone and stained as described above.

Substance	effect of protease inhibitor on aortic sprouting (wild-type and TFΔCT aortas in serum, 3 days, hirudin 500 nM, NAP5 1 μM (FIG. 2b))	sprouting induced by single factor replacing serum	sprouting of aortas stimulated with VEGF in the absence of serum (VEGF 20 ng/ml, no serum, day 3 (FIG. 2a))	difference in sprouting TFΔCT versus wild-type aortas with serum supplemented with VEGF (serum plus VEGF 20 ng/ml, day 3 (FIG. 2a))
hirudin [reference compound]	no effect on sprouting	–	–	–
bFGF: pro-angiogenic growth factor	–	None of these factors promoted substantial sprouting	–	–
PDGF-AA: selective agonist for PDGF receptor a	–	None of these factors promoted substantial sprouting	–	–
VEGF	–	None of these factors promoted substantial sprouting	very limited sprouting	did not abolish the difference in sprouting
